# Measured values from ChEMBL document CHEMBL1201862, “PubChem BioAssay data set” (2004).
#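 Protocol summary: plate cells (96-well), add compound at 5 concentrations, incubate 48 h, interpolate endpoints linearly. Abbreviation: GI50, concentration required for 50% inhibition of growth.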 Activity calls are given as the source filed them. Cut-off read from the data, not from the text of the source: active = GI50 up to about 1.1 µM and inactive = higher.
# Tests used:
# Assay in all cases: NCI-60 cell line screen, 48 h
# [1] = tested on: RPMI-8226
# [2] = tested on: SK-OV-3
# [3] = tested on: CCRF-CEM
# [4] = tested on: U-251
# [5] = tested on: COLO 205
# [6] = tested on: HCC 2998
# [7] = tested on: NCI-H460
# [8] = tested on: BT-549
# [9] = tested on: T47D
# [10] = tested on: A498
# [11] = tested on: KM12
# [12] = tested on: SN12C
# [13] = tested on: TK-10
# [14] = tested on: 786-0
# [15] = tested on: NCI-H522
# [16] = tested on: A549
# [17] = tested on: DU-145
# [18] = tested on: CAKI-1
# [19] = tested on: UO-31
# [20] = tested on: HCT-116
# [21] = tested on: HT-29
# [22] = tested on: Hs-578T
# [23] = tested on: UACC-257
# [24] = tested on: UACC-62
# [25] = tested on: NCI-H23
# [26] = tested on: MDA-N
# [27] = tested on: MDA-MB-435
# [28] = tested on: SF-539
# [29] = tested on: MDA-MB-231
# [30] = tested on: SNB-75
# [31] = tested on: LOX IMVI
# [32] = tested on: M14
# [33] = tested on: OVCAR-4
# [34] = tested on: SK-MEL-2
# [35] = tested on: RXF 393
# [36] = tested on: OVCAR-3
# [37] = tested on: MOLT-4
# [38] = tested on: OVCAR-5
# [39] = tested on: MCF7
# [40] = tested on: SNB-19
# [41] = tested on: HCT-15
# [42] = tested on: Malme-3M
# [43] = tested on: SK-MEL-5
# [44] = tested on: SW-620
# [45] = tested on: HOP-62
# [46] = tested on: PC-3
# [47] = tested on: SF-268
# [48] = tested on: NCI-H226
# [49] = tested on: EKVX
# [50] = tested on: OVCAR-8
# [51] = tested on: SK-MEL-28
# [52] = tested on: NCI/ADR-RES
# [53] = tested on: K562
# [54] = tested on: ACHN
# [55] = tested on: SF-295
smiles,measurement,setting,value
COc1cc2c[n+](C)c3c4ccccc4ccc3c2cc1OC,GI50,[1],3.05 µM (inactive)
same,GI50,[2],6.08 µM (inactive)
same,GI50,[3],6.5 µM (inactive)
same,GI50,[4],0.726 µM (active)
same,GI50,[5],0.991 µM (active)
same,GI50,[6],4.81 µM (inactive)
same,GI50,[7],10 µM (inactive)
same,GI50,[8],2.92 µM (inactive)
same,GI50,[9],2.06 µM (inactive)
same,GI50,[10],37.4 µM (inactive)
same,GI50,[11],0.452 µM (active)
same,GI50,[12],1.32 µM (inactive)
same,GI50,[13],26.7 µM (inactive)
same,GI50,[14],8.65 µM (inactive)
same,GI50,[15],0.302 µM (active)
same,GI50,[16],0.845 µM (active)
same,GI50,[17],3.8 µM (inactive)
same,GI50,[18],55.3 µM (inactive)
same,GI50,[19],> 75.5 µM (inactive)
same,GI50,[20],3.95 µM (inactive)
same,GI50,[21],5.4 µM (inactive)
same,GI50,[22],2.51 µM (inactive)
same,GI50,[23],3.73 µM (inactive)
same,GI50,[24],4.6 µM (inactive)
same,GI50,[25],2.6 µM (inactive)
same,GI50,[26],4.45 µM (inactive)
same,GI50,[27],3.83 µM (inactive)
same,GI50,[28],6.17 µM (inactive)
same,GI50,[29],5.05 µM (inactive)
same,GI50,[30],5.89 µM (inactive)
same,GI50,[31],12.9 µM (inactive)
same,GI50,[32],18.1 µM (inactive)
same,GI50,[33],9.4 µM (inactive)
same,GI50,[34],5.69 µM (inactive)
same,GI50,[35],14.6 µM (inactive)
same,GI50,[36],6.05 µM (inactive)
same,GI50,[37],0.422 µM (active)
same,GI50,[38],26.7 µM (inactive)
same,GI50,[39],3.66 µM (inactive)
same,GI50,[40],2.44 µM (inactive)
same,GI50,[41],> 100 µM
same,GI50,[42],1.55 µM (inactive)
same,GI50,[43],2.87 µM (inactive)
same,GI50,[44],1.95 µM (inactive)
same,GI50,[45],18.6 µM (inactive)
same,GI50,[46],4.89 µM (inactive)
same,GI50,[47],0.224 µM (active)
same,GI50,[48],2.94 µM (inactive)
same,GI50,[49],2.54 µM (inactive)
same,GI50,[50],2.71 µM (inactive)
same,GI50,[51],3.42 µM (inactive)
same,GI50,[52],> 100 µM (inactive)
same,GI50,[53],1.4 µM (inactive)
same,GI50,[54],35.9 µM (inactive)
same,GI50,[55],16.9 µM (inactive)
